This note sets out measurements from ChEMBL document CHEMBL1909046, “DrugMatrix in vitro pharmacology data”.

SMILES strings stand for the structures.

Series [1] addresses T1, Cytochrome P450 2A6 (Homo sapiens, UniProt P11509).
T1 sequence (P11509 whole entry): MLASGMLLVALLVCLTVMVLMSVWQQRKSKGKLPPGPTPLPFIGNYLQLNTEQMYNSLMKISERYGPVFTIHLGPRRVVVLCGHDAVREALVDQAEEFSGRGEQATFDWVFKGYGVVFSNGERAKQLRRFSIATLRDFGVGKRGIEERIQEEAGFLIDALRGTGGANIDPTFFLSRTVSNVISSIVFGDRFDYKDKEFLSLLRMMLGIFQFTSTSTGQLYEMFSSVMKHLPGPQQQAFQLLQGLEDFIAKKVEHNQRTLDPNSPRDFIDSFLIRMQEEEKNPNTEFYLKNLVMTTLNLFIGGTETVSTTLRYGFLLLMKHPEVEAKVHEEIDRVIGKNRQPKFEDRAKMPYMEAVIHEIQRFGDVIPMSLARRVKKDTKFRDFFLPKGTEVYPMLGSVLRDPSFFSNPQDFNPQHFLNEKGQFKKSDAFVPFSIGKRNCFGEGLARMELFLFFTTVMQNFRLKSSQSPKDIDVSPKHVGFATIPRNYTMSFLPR
The settings on record: bti-tn-5b1-4.

Series [2] addresses T2, Leukotriene C4 synthase (Cavia porcellus, UniProt A6XA80).
T2 sequence (A6XA80 whole entry): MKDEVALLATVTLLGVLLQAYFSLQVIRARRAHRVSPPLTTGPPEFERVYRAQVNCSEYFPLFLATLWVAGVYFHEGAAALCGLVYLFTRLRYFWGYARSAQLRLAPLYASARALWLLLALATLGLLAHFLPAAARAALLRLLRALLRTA
Briefly: biochemical. Type of series: tissue-based, Lung.

In series [3] the target is T3, Caspase-1 (Homo sapiens, UniProt P29466).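 Further: Caspase-1 enzyme inhibition assay with a peptide substrate; in other assays of this panel Not Active means under 50% inhibition at 10 µM.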
T3 sequence (P29466 whole entry): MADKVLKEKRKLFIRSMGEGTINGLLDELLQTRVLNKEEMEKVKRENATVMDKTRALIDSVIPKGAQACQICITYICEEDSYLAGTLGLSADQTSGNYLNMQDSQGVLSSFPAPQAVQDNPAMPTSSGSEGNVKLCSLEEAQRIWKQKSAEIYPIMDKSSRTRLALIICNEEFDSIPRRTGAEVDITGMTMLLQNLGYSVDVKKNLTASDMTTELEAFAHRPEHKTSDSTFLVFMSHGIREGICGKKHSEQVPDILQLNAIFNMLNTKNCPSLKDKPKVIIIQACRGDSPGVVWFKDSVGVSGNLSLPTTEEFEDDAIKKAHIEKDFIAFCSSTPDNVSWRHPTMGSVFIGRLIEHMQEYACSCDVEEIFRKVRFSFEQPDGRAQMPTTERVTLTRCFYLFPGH
Further details: species or system Escherichia coli.

The target in series [4] is Melanocortin receptor 4 (Homo sapiens, UniProt P32245). Type of series: cell membranes, Membrane. Conditions: hek293. Further: in other assays of this panel Not Active means under 50% inhibition at 10 µM.
Chain of Melanocortin receptor 4 (P32245 whole entry): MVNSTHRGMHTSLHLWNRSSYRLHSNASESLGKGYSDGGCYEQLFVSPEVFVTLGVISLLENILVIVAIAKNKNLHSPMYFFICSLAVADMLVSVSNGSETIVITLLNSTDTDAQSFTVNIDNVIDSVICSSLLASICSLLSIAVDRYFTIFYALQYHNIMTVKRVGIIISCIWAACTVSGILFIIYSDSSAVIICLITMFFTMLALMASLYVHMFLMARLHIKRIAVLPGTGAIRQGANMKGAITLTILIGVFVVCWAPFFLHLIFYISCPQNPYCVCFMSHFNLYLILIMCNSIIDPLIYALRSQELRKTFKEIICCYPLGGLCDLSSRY
Series [5] can be described thus: DRUGMATRIX: Calcium Channel Type L, Dihydropyridine radioligand binding (ligand: [3H] Nitrendipine). Type of series: cell membranes, Rattus norvegicus, Wistar, Cerebral cortex, Membrane. Conditions: Not Active = under 50% inhibition at 10 µM.
Series [6] concerns the target T4, Muscarinic acetylcholine receptor M2 (Homo sapiens, UniProt P08172). Further: in other assays of this panel Not Active means under 50% inhibition at 10 µM.
T4 sequence (P08172 whole entry): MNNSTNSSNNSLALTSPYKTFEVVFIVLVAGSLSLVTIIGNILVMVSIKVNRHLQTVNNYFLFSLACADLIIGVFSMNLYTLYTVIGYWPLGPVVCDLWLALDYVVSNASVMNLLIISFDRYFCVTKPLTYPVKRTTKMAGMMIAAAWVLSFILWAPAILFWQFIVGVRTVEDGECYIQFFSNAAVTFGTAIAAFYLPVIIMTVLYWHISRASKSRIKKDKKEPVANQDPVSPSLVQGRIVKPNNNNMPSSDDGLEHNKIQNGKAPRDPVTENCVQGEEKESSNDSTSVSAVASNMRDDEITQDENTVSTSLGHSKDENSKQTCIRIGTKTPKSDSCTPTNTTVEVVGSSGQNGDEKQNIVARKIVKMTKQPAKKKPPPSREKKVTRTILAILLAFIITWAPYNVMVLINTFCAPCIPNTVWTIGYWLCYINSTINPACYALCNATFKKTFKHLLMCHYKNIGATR
Type of series: cell membranes, CHO-K1, Membrane.

Series [7] can be described thus: DRUGMATRIX: Purinergic P2X radioligand binding (ligand: [3H] alpha, beta-Methylene-ATP). The settings on record: Not Active = under 50% inhibition at 10 µM. Type of series: cell membranes, Oryctolagus cuniculus, New Zealand albino, Urinary bladder, Membrane.
The target in series [8] is Protein phosphatase 3 catalytic subunit alpha (Homo sapiens, UniProt Q08209). Also on record: species or system Escherichia coli.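 Further: inhibition of calcineurin (PP2B) enzyme activity, measured with DiFMUP as the substrate; in other assays of this panel Not Active means under 50% inhibition at 10 µM.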

`C[C@@H]1[C@H](O)[C@@H](C)/C=C/C=C/C=C/C=C/C=C/C=C/C=C/[C@H](O[C@@H]2O[C@H](C)[C@@H](O)[C@H](N)[C@@H]2O)C[C@@H]2O[C@](O)(C[C@@H](O)C[C@@H](O)[C@H](O)CC[C@@H](O)C[C@@H](O)CC(=O)O[C@H]1C)C[C@H](O)[C@H]2C(=O)O` [AMPHOTERICIN B]: the concentration for half-maximal inhibition (IC50) entry in series [1], in series [2], in series [3], in series [4], in series [5] and in series [6] (cho-k1) was “Not Active” in each case. The IC50 result in series [7] and in series [8] was “Not Active” throughout. Further, the Ki result in series [1], in series [5] and in series [7] was “Not Active” each time.

Take `Cc1cc(C(C)(C)C)c(O)c(C)c1CC1=NCCN1` [OXYMETAZOLINE]: the half-inhibitory concentration (IC50) entry in series [1], in series [2], in series [3], in series [4], in series [5] and in series [6] (cho-k1) was “Not Active” throughout. In addition, the IC50 entry in series [7] and in series [8] was “Not Active” each time. In addition, the Ki entry in series [1], in series [5] and in series [7] was “Not Active” each time.

As to `CCN(CCO)CCCC(C)Nc1ccnc2cc(Cl)ccc12` (stereo not given) [HYDROXYCHLOROQUINE], the IC50 result in series [1] was “Not Active”; in series [2], “Not Active”; in series [3], “Not Active”; in series [4] it was “Not Active”; in series [5] it was “Not Active”; in series [6] (read-out: IC50) it was 2950 nM. For the same compound, the IC50 result in series [7] and in series [8] was “Not Active” each time. Besides, the inhibitory constant (Ki) entry was “Not Active” in series [1], “Not Active” in series [5], 1050 nM in series [6] (read-out: Ki) and “Not Active” in series [7].

`CC12CCC(CC1=O)C2(C)C` (stereo not given) [CAMPHOR]: the 50% inhibitory concentration (IC50) entry in series [1], in series [2], in series [3], in series [4], in series [5] and in series [6] (cho-k1) was “Not Active” in each case. Moreover, the IC50 result in series [7] and in series [8] was “Not Active” throughout. Besides, the inhibition constant Ki result in series [1], in series [5] and in series [7] was “Not Active” throughout.

Take `CCC1(c2ccccc2)C(=O)NC(=O)NC1=O` [PHENOBARBITAL]: the IC50 result in series [1], in series [2], in series [3], in series [4], in series [5] and in series [6] (cho-k1) was “Not Active” in each case. Besides, the IC50 entry in series [7] and in series [8] was “Not Active” in each case. Also, the Ki entry in series [1], in series [5] and in series [7] was “Not Active” throughout.

As to `C[N+](C)(C)CCOP(=O)([O-])OC[C@H](O)CO`, the half-inhibitory concentration (IC50) result in series [1], in series [2], in series [3], in series [4], in series [5] and in series [6] (cho-k1) was “Not Active” throughout. Besides, the IC50 result in series [7] and in series [8] was “Not Active” each time. Further, the inhibition constant Ki entry in series [1], in series [5] and in series [7] was “Not Active” each time.

As for `Oc1ccccc1` [PHENOL], the half-inhibitory concentration (IC50) entry in series [1], in series [2], in series [3], in series [4], in series [5] and in series [6] (cho-k1) was “Not Active” each time. The IC50 entry in series [7] and in series [8] was “Not Active” throughout. The Ki entry in series [1], in series [5] and in series [7] was “Not Active” throughout.

For `Nc1nc(F)nc2c1ncn2[C@@H]1O[C@H](CO)[C@@H](O)[C@@H]1O` [FLUDARABINE], the concentration for half-maximal inhibition (IC50) entry in series [1], in series [2], in series [3], in series [4], in series [5] and in series [6] (cho-k1) was “Not Active” each time. Also, the half-inhibitory concentration (IC50) result in series [7] and in series [8] was “Not Active” each time. The inhibition constant (Ki) entry in series [1], in series [5] and in series [7] was “Not Active” throughout.

On to `c1ccc(Cn2ccnc2)cc1`, for which the IC50 entry in series [1], in series [2], in series [3], in series [4], in series [5] and in series [6] (cho-k1) was “Not Active” each time. The 50% inhibitory concentration (IC50) result in series [7] and in series [8] was “Not Active” throughout. In addition, the inhibition constant (Ki) entry in series [1], in series [5] and in series [7] was “Not Active” throughout.

Regarding `Nc1nc(N)c2nc(CNc3ccc(C(=O)N[C@@H](CCC(=O)O)C(=O)O)cc3)cnc2n1` [AMINOPTERIN], the half-maximal inhibitory concentration (IC50) result in series [1], in series [2], in series [3], in series [4], in series [5] and in series [6] (cho-k1) was “Not Active” throughout. Moreover, the IC50 result in series [7] and in series [8] was “Not Active” throughout. Moreover, the inhibition constant Ki result in series [1], in series [5] and in series [7] was “Not Active” in each case.

`C=C(Cl)Cl` [1,1-DICHLOROETHENE]: the half-maximal inhibitory concentration (IC50) result in series [1], in series [2], in series [3], in series [4], in series [5] and in series [6] (cho-k1) was “Not Active” each time. Also, the IC50 result in series [7] and in series [8] was “Not Active” throughout. The inhibition constant Ki result in series [1], in series [5] and in series [7] was “Not Active” throughout.

On to `Oc1ncnc2[nH]ncc12` [ALLOPURINOL], for which the IC50 result in series [1], in series [2], in series [3], in series [4], in series [5] and in series [6] (cho-k1) was “Not Active” in each case. Further, the half-maximal inhibitory concentration (IC50) result in series [7] and in series [8] was “Not Active” throughout. The Ki entry in series [1], in series [5] and in series [7] was “Not Active” throughout.

On to `O=C(O)CCc1nc(-c2ccccc2)c(-c2ccccc2)o1` [OXAPROZIN], for which the 50% inhibitory concentration (IC50) result in series [1], in series [2], in series [3], in series [4], in series [5] and in series [6] (cho-k1) was “Not Active” throughout. Also, the IC50 result in series [7] and in series [8] was “Not Active” throughout. Also, the Ki entry in series [1], in series [5] and in series [7] was “Not Active” in each case.

On to `ClC1=C(Cl)[C@]2(Cl)[C@@H]3[C@@H]4C[C@@H]([C@H]5O[C@@H]45)[C@@H]3[C@@]1(Cl)C2(Cl)Cl` [DIELDRIN], for which the 50% inhibitory concentration (IC50) result in series [1], in series [2], in series [3], in series [4], in series [5] and in series [6] (cho-k1) was “Not Active” in each case. The half-maximal inhibitory concentration (IC50) result in series [7] and in series [8] was “Not Active” in each case. Also, the Ki result in series [1], in series [5] and in series [7] was “Not Active” in each case.
